Test results reported in ChEMBL document CHEMBL1147075, “Immunotherapeutic activity of a conjugate of a Toll-like receptor 7 ligand” (Proc Natl Acad Sci U S A, 2007).
Active and inactive are the calls of the source. The calls are words filed in the database; no cut-off is given here.

Experiments:
[1] = test system: Bacillus anthracis; test: Protection against Bacillus anthracis infection in A/J mouse; format: functional, organism-based
[2] = test system: BMDM; test: Induction of cytokine release in mouse BMDM cells at 0.01 to 10 uM after 24 hrs by ELISA; format: functional, cell-based

COCCOc1nc(N)c2nc(O)n(Cc3ccc(C=O)cc3)c2n1
Activity [1]: inactive
Activity [2]: Active
